{"source": "patent EP0603240B1", "about": "“SAFENING HERBICIDAL PYRAZOLYLSULFONYLUREAS” (priority 1991, dated 1993)", "format_in_all_cases": "in vivo", "key": {"[1]": {"system": "barnyardgrass (Echinochloa crusgalli)", "experiment": "Example 6, Procedure II: Herbicide No. 1 + alachlor (No. 7) with antidotes", "procedure,_shortened": "(§1)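 Herbicide No. 1 plus alachlor, with or without antidote, was applied in acetone and mixed into a silt loam soil layer covering corn and weed seedbeds. Containers received 0.6 cm overhead irrigation, then greenhouse sub-irrigation. Injury was rated as percent, averaged over duplicates; antidote effect is the injury difference without and with antidote.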"}, "[2]": {"system": "velvetleaf (Abutilon theophrasti)", "experiment": "Example 6, Procedure II: Herbicide No. 1 + alachlor (No. 7) with antidotes", "procedure,_shortened": "as §1"}, "[3]": {"system": "barnyardgrass (Echinochloa crusgalli)", "experiment": "Example 22: retest of Example 21 at reduced greenhouse temperatures", "settings": "Table 22", "protocol": "(§2) Containers were filled and compacted with a fumigated silt loam top soil to a depth of about 1.3 cm from the top of the container. A first container was designated as an untreated control, a second container was designated as a herbicide control, and a third container was designated as a herbicide + antidote test container. Each of the containers was seeded with a crop species. A measured amount of herbicide dispersed or dissolved in acetone was applied to a measured quantity of soil. To this same quantity of soil treated with herbicide, there was added a measured amount of antidote dispersed or dissolved in acetone. The quantity of soil treated with the herbicide and antidote was thoroughly mixed to incorporate the herbicide and antidote in the soil uniformly. The seed bed in the third container of soil was covered with the soil treated with the herbicide and antidote and the container was leveled. For each test series, the seed beds of the first and second containers were likewise covered by soil layers. the cover layer of the first container was not treated with herbicide or antidote.\n(§3) The containers were then placed on a bench in a greenhouse and sub-irrigated as required for the duration of the test. […] Plant response is measured in terms of percent injury. Antidote efficacy is indicated as the difference in plant injury by the herbicide(s) without the antidote and with the antidote.\n(§4) This procedure is the same as Procedure I, but modified in the manner that after incorporation of the chemicals (herbicide and antidote) the containers with the covered seedbed were treated with an initial overhead irrigation equivalent to 0.6 cm rainfall, then subsequently sub-irrigated as required on greenhouse benches.\n(§5) In the series of greenhouse tests described below, for routine screening purposes the herbicide/antidote compositions were tested in crop/weed combinations involving corn as the crop and either or both of the weeds barnyardgrass (Echinochloa crusgalli), a monocotyledonous weed, and velvetleaf (Abutilon theophrasti), a dicotyledonous weed. In the tables below, these weeds are indicated by the symbols \"BYG\" and \"VL\", respectively.\n(§6) In this example, tests were conducted as in the preceding Examples 18-20, except here the co-herbicidal component was SUTAN® PLUS, a commercial product comprising as the active herbicidal ingredient the compound butylate (Herbicide No. 10) and an antidote […] (Antidote No. 1). Again, the antidotal compounds herein were Nos. 1, 2, 7, 13 and 15. Procedure II was used.\n(§7) The experiments in this example were designed as a retest of those described in Example 21 in view of the uncharacteristically poor corn safety and weed control, believed to have resulted from unseasonably high temperatures in the greenhouse. Accordingly, temperatures were reduced for these tests."}, "[4]": {"system": "velvetleaf (Abutilon theophrasti)", "experiment": "Example 22: retest of Example 21 at reduced greenhouse temperatures", "settings": "Table 22", "protocol": "as §2, §3, §4, §5, §6, §7"}, "[5]": {"system": "corn", "experiment": "Example 8, Procedure II: Herbicide No. 1 + butachlor (No. 9) with antidotes", "procedure,_shortened": "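Corn sown in silt loam and covered with soil pre-mixed with acetone-applied Herbicide No. 1 plus butachlor, with or without antidote. Given 0.6 cm overhead irrigation, then sub-irrigated in greenhouse; antidote effect is percent injury without minus with antidote.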"}, "[6]": {"system": "corn", "experiment": "Example 21, Procedure II: Herbicide No. 1 + SUTAN PLUS (butylate + antidote) with antidotes", "protocol": "as §2, §3, §4, §6"}, "[7]": {"system": "barnyardgrass (Echinochloa crusgalli)", "experiment": "Example 11, Procedure II: Herbicide No. 1 + metazachlor (No. 14) with antidotes"}, "[8]": {"system": "velvetleaf (Abutilon theophrasti)", "experiment": "Example 11, Procedure II: Herbicide No. 1 + metazachlor (No. 14) with antidotes"}, "[9]": {"system": "barnyardgrass (Echinochloa crusgalli)", "experiment": "Example 19, Procedure II: Herbicide No. 1 + ERADICANE EXTRA with added antidotes", "protocol": "as §2, §3, §4, §5\n(§8) In the test reported in this example, the herbicidal composition was similar to that used in Example 16 in that Herbicide No. 1 was combined with EPTC (Herbicide No. 4) as a co-herbicide and the antidotes included Nos. 1, 2, 7, 13 and 15. However, in this test the EPTC was introduced as a formulation of ERADICANE (EPTC + the antidote R-25788, i.e., Antidote No. 1) at an application rate of 8.96 kg/ha. Thus, in this test two antidotes were present, viz. R-25788 and one of the auxilliary antidotes, No. 2, 13 and 15.\n(§9) The test reported in this example was performed in the same manner and with the same antidotes used in Example 18, the only difference being the substitution of the commercial herbicidal product ERADICANE® EXTRA for ERADICANE®. ERADICANE EXTRA is a formulation containing both an antidote, i.e., R-29148 (Antidote No. 5 herein), and an extender, dietholate."}, "[10]": {"system": "velvetleaf (Abutilon theophrasti)", "experiment": "Example 19, Procedure II: Herbicide No. 1 + ERADICANE EXTRA with added antidotes", "protocol": "as §2, §3, §4, §5, §8, §9"}, "[11]": {"settings": "Herbicide No.1 0.14 + No.7 4.48 kg/ha + antidote 2.24 kg/ha"}, "[12]": {"settings": "Herbicide No.1 0.14 + No.7 4.48 kg/ha + antidote 8.96 kg/ha"}, "[13]": {"settings": "Herbicide No.1 0.56 + No.7 4.48 kg/ha + antidote 2.24 kg/ha"}, "[14]": {"settings": "Herbicide No.1 0.56 + No.7 4.48 kg/ha + antidote 8.96 kg/ha"}, "[15]": {"settings": "Herbicide No.1 0.56 Kg/ha + SUTAN + 8.96 Kg/ha + antidote 2.24 Kg/ha"}, "[16]": {"settings": "Herbicide No.1 0.56 Kg/ha + SUTAN + 8.96 Kg/ha + antidote 8.96 Kg/ha"}, "[17]": {"settings": "Herbicide No.1 1.12 Kg/ha + SUTAN + 8.96 Kg/ha + antidote 2.24 Kg/ha"}, "[18]": {"settings": "Herbicide No.1 1.12 Kg/ha + SUTAN + 8.96 Kg/ha + antidote 8.96 Kg/ha"}, "[19]": {"settings": "Herbicide No.1 0.56 kg/ha + Herbicide No.14 3.36 kg/ha, antidote rate 2.24 kg/ha"}, "[20]": {"settings": "Herbicide No.1 0.56 kg/ha + Herbicide No.14 3.36 kg/ha, antidote rate 8.96 kg/ha"}, "[21]": {"settings": "Herbicide No.1 1.12 kg/ha + Herbicide No.14 3.36 kg/ha, antidote rate 2.24 kg/ha"}, "[22]": {"settings": "Herbicide No.1 1.12 kg/ha + Herbicide No.14 3.36 kg/ha, antidote rate 8.96 kg/ha"}, "[23]": {"settings": "Herbicide No.1 0.56 kg/ha + ERADICANE EXTRA 8.96 kg/ha, antidote 2.24 kg/ha"}, "[24]": {"settings": "Herbicide No.1 0.56 kg/ha + ERADICANE EXTRA 8.96 kg/ha, antidote 8.96 kg/ha"}, "[25]": {"settings": "Herbicide No.1 1.12 kg/ha + ERADICANE EXTRA 8.96 kg/ha, antidote 2.24 kg/ha"}, "[26]": {"settings": "Herbicide No.1 1.12 kg/ha + ERADICANE EXTRA 8.96 kg/ha, antidote 8.96 kg/ha"}}, "data": [{"smiles": "CC1(C)OC(c2ccco2)CN1C(=O)C(Cl)Cl", "note": "(stereo not shown) [compound 15]", "values": [{"measurement": "% Injury BYG", "setting": "[1]; [11]", "result": 100, "unit": "%"}, {"measurement": "% Injury BYG", "setting": "[1]; [12]", "result": 100, "unit": "%"}, {"measurement": "% Injury BYG", "setting": "[1]; [13]", "result": 100, "unit": "%"}, {"measurement": "% Injury BYG", "setting": "[1]; [14]", "result": 100, "unit": "%"}, {"measurement": "% Injury VL", "setting": "[2]; [11]", "result": 80, "unit": "%"}, {"measurement": "% Injury VL", "setting": "[2]; [12]", "result": 65, "unit": "%"}, {"measurement": "% Injury VL", "setting": "[2]; [13]", "result": 90, "unit": "%"}, {"measurement": "% Injury VL", "setting": "[2]; [14]", "result": 95, "unit": "%"}, {"measurement": "% Injury BYG", "setting": "[3]; [15]", "result": 85, "unit": "%"}, {"measurement": "% Injury BYG", "setting": "[3]; [16]", "result": 90, "unit": "%"}, {"measurement": "% Injury BYG", "setting": "[3]; [17]", "result": 85, "unit": "%"}, {"measurement": "% Injury BYG", "setting": "[3]; [18]", "result": 90, "unit": "%"}, {"measurement": "% Injury VL", "setting": "[4]; [15]", "result": 70, "unit": "%"}, {"measurement": "% Injury VL", "setting": "[4]; [16]", "result": 98, "unit": "%"}, {"measurement": "% Injury VL", "setting": "[4]; [17]", "result": 80, "unit": "%"}, {"measurement": "% Injury VL", "setting": "[4]; [18]", "result": 80, "unit": "%"}, {"measurement": "% Injury Corn", "setting": "[5]; Herbicide No.1 0.14 + No.9 2.24 kg/ha + antidote 2.24 kg/ha", "result": 20, "unit": "%"}, {"measurement": "% Injury Corn", "setting": "[5]; Herbicide No.1 0.14 + No.9 2.24 kg/ha + antidote 8.96 kg/ha", "result": 15, "unit": "%"}, {"measurement": "% Injury Corn", "setting": "[5]; Herbicide No.1 0.56 + No.9 2.24 kg/ha + antidote 2.24 kg/ha", "result": 10, "unit": "%"}, {"measurement": "% Injury Corn", "setting": "[5]; Herbicide No.1 0.56 + No.9 2.24 kg/ha + antidote 8.96 kg/ha", "result": 10, "unit": "%"}, {"measurement": "% Injury Corn", "setting": "[6]; Herbicide No.1 0.56 kg/ha + SUTAN + 8.96 kg/ha, antidote 2.24 kg/ha", "result": 25, "unit": "%"}, {"measurement": "% Injury Corn", "setting": "[6]; Herbicide No.1 0.56 kg/ha + SUTAN + 8.96 kg/ha, antidote 8.96 kg/ha", "result": 25, "unit": "%"}, {"measurement": "% Injury Corn", "setting": "[6]; Herbicide No.1 1.12 kg/ha + SUTAN + 8.96 kg/ha, antidote 2.24 kg/ha", "result": 30, "unit": "%"}, {"measurement": "% Injury Corn", "setting": "[6]; Herbicide No.1 1.12 kg/ha + SUTAN + 8.96 kg/ha, antidote 8.96 kg/ha", "result": 20, "unit": "%"}, {"measurement": "% Injury BYG", "setting": "[7]; [19]", "result": 100, "unit": "%"}, {"measurement": "% Injury BYG", "setting": "[7]; [20]", "result": 100, "unit": "%"}, {"measurement": "% Injury BYG", "setting": "[7]; [21]", "result": 100, "unit": "%"}, {"measurement": "% Injury BYG", "setting": "[7]; [22]", "result": 100, "unit": "%"}, {"measurement": "% Injury VL", "setting": "[8]; [19]", "result": 90, "unit": "%"}, {"measurement": "% Injury VL", "setting": "[8]; [20]", "result": 90, "unit": "%"}, {"measurement": "% Injury VL", "setting": "[8]; [21]", "result": 85, "unit": "%"}, {"measurement": "% Injury VL", "setting": "[8]; [22]", "result": 85, "unit": "%"}, {"measurement": "% Injury BYG", "setting": "[9]; [23]", "result": 90, "unit": "%"}, {"measurement": "% Injury BYG", "setting": "[9]; [24]", "result": 85, "unit": "%"}, {"measurement": "% Injury BYG", "setting": "[9]; [25]", "result": 85, "unit": "%"}, {"measurement": "% Injury BYG", "setting": "[9]; [26]", "result": 90, "unit": "%"}, {"measurement": "% Injury VL", "setting": "[10]; [23]", "result": 70, "unit": "%"}, {"measurement": "% Injury VL", "setting": "[10]; [24]", "result": 75, "unit": "%"}, {"measurement": "% Injury VL", "setting": "[10]; [25]", "result": 85, "unit": "%"}, {"measurement": "% Injury VL", "setting": "[10]; [26]", "result": 75, "unit": "%"}]}]}
